Data: publication PMC4503694, “The Human Autoantibody Response to Apolipoprotein A-I Is Focused on the C-Terminal Helix: A New Rationale for Diagnosis and Treatment of Cardiovascular Disease?” (PLoS ONE, 2015)

Key:
[1] = test system: anti-ApoA-I autoantibodies in pooled patient plasma; assay: Capture ELISA: immunoreactivity of pooled anti-ApoA-I-positive patient plasma to coated peptides; format: binding, human; details: pooled plasma of anti-ApoA-I-positive patients; peptide as coating antigen; mean ± SD, n = 3 (Fig 1a)
Procedure: Anti-ApoA-I IgG autoantibodies in plasma were measured as described previously. Briefly, Maxisorp plates (Nunc) were coated with purified and delipidated human ApoA-I, diluted in carbonate buffer pH 9.7 (20 μg/ml; 50 μl/well), for 1 h at 37°C. The same procedure was used for the engineered peptides. After three washes with PBS/ 2% (w/v) BSA (100 μl/well), all wells were blocked for 1 h with PBS/ 2% (w/v) BSA at 37°C. Samples were diluted 1:50 in PBS/ 2% (w/v) BSA and incubated for 60 min at 37°C. Samples at the same dilution were also added to a non-coated well to assess individual non-specific binding. After six further washes, 50 μl/well of alkaline-phosphatase conjugated anti-(human IgG) (Sigma-Aldrich), diluted 1:1000 in PBS/ 2% (w/v) BSA, was incubated for 1 h at 37°C. After six more washes (150 μl/well) with PBS/ 2% (w/v) BSA, the phosphatase substrate p-nitrophenyl phosphate (50μl/well; 1mg/ml; Sigma—Aldrich) dissolved in 4.8% (w/v) diethanolamine (pH 9.8) was added. Each sample was tested in duplicate and A 405nm was determined after 20 min of incubation at 37°C (VERSAMax; MolecularDevices). The corresponding non-specific binding was subtracted from the mean absorbance for each sample. As in previous studies, positive immunoreactivity of human samples to ApoA-I was prospectively defined by an index >37%. This value was also used to define positive immunoreactivity to mimetic peptides, as defined upon receiver operating characteristic (ROC) curve analyses, and shown to provide an identical prevalence of positive immunoreactivity levels 11% […] to native ApoA-1 and 11% (14/132) to F3L1 peptide (data not shown). Repeatability and reproducibility were determined at two levels. At a high level (A 405nm = 1.2, i.e. twice the cut-off value), the intra- and inter-assay coefficients of variation were 10% (n = 10) and 17% (n = 10) respectively. At the cut-off level, the intra- and inter-assay coefficients of variation were 16% (n = 10) and 12% (n = 8) respectively.
In order to characterize the anti-ApoA-I autoantibody response, we chemically synthesized a panel of peptides corresponding to the different alpha-helical regions in the protein (Table 1). Each of the two longest helical regions, C and D, were synthesized as two separate peptides (C1, C2, D1, D2) whose sequences are located on either side of centrally located proline residues (Pro^121 for Region C, Pro^165 for Region D (Table 1)). The synthetic peptides were then used as coating antigens in a capture ELISA experiment to compare their immunoreactivity against pooled plasma from a subset of patients from our acute chest pain cohort that had previously shown to be positive for anti-ApoA-I autoantibodies (Fig 1a).
(§1) Fig 1 The anti-ApoA-I autoantibody response is strongly biased towards the C-terminal alpha-helical region. ELISA experiments were carried out using a set of ApoA-I-derived peptides (Table 1). a. Capture ELISA assay to determine the immunoreactivity of plasma pooled from patients known to be positive for anti-ApoA-I autoantibodies against the set of peptides. Specific ELISA signals were calculated as [signal in well]-[mean background signal (uncoated well)]. Results are expressed as mean ± SD (n = 3) b and c. Competition ELISA to determine the capacity of the set of peptides to block binding of anti-ApoA-I antibodies from either pooled patient plasma (b) or goat polyclonal IgG (c) to immobilized ApoA-I. Plasma or antibody was preincubated (2 h, room temperature) with peptides at the indicated concentrations prior to addition to assay wells. Percent maximal ELISA signals were calculated as 100 × ([signal in well]-[mean background signal (uncoated well)])/([mean maximal signal (no peptide)]-[mean background signal]). Results are expressed as mean ± SD (n = 3).

[2] = test system: anti-ApoA-I antibodies in plasma samples from three different patients; assay: Competition ELISA with plasma of three individual anti-ApoA-I-positive patients; format: binding, human; details: preincubated 2 h at room temperature with peptide, n = 3 (Fig 3)
Procedure: We next performed ELISA assays using plasma samples from three different anti-ApoA-I autoantibody-positive patients from the cohort pre-incubated with Peptide F, a scrambled version of Peptide F (Table 1), or the stapled peptide F3L1 prior to addition to wells coated with ApoA-I (Fig 3).
Plasma samples were preincubated (2 h, room temperature) with peptides at the indicated concentrations prior to addition to assay wells. Percent maximal ELISA signals were calculated as 100 × ([signal in well]-[mean background signal (uncoated well)])/ ([mean maximal signal (no peptide)]-[mean background signal]). Results are expressed as mean ± SD (n = 3).

RAW cells = assay: Anti-ApoA-I IgG-induced TNF-α release in RAW mouse macrophage cell line; format: cell-based; details: anti-ApoA-I IgG 100 μg/ml preincubated 2 h with peptide 100 to 0.06 μg/ml; 24 h stimulation; ELISA; n = 3 (Fig 7)
Procedure: Raw cells were seeded in 96-well plates at 2 × 10^5 cells/well in DMEM culture medium (10% heat-inactivated FCS, 50 μg/ml streptomycin, 50 U/ml penicillin) for 24 h. Anti-Apo-A1 IgG (100 μg/ml) were incubated with peptides across a concentration range from 100 μg/ml to 0.06 μg/ml for 2 h at room temperature prior addition to cells. After 24 h stimulation, mouse TNF-α was quantified in the cell supernatants by ELISA according to manufacturer’s instructions (R&D system, MN).
Fig 7 Comparing the inhibitory potency of Peptide F and F3L1 on anti-ApoA-I IgG-induced TNF-α. Anti-ApoA-I IgG was incubated with the indicated peptide concentrations (preincubation 2 h at room temperature) prior to addition to cultured RAW cells. Levels of proinflammatory cytokines (TNF-α) were determined after 24 h culture. Mean levels (n = 3) are shown with error bars indicating the range.

[3] = test system: human monocyte-derived macrophages; assay: Anti-ApoA-I IgG-mediated IL-6 and TNF-α release from human monocyte-derived macrophages; format: cell-based; details: peptide preincubated with anti-ApoA-I IgG 2 h at room temperature; highest concentration 1 mg/mL (Fig 5, 6)
Procedure: Human monocytes were isolated from buffy coats from healthy donors at the Geneva University Hospitals Blood Transfusion Center and differentiated into macrophages by 24 h incubation with IFN-γ (500 U/ml) in complete RPMI-1640 culture medium (10% heat-inactivated FCS, 50 μg/ml streptomycin, 50 U/ml penicillin, 2 mM L-glutamine), as previously described. Assays of anti-ApoA-I IgG-mediated release of IL-6 and TNF-α from human monocyte-derived macrophages was carried out as described previously using a previously determined optimal concentration of polyclonal goat anti-ApoA-I IgG (40 μg/ml). Endotoxin contamination in the assay was excluded using the limulus amebocyte lysate Endochrome assay. Where indicated, anti-ApoA-I IgG was pre-incubated with peptide […] (1 mg/mL) for 2 h at room temperature prior addition to the cells. Each experiment was performed on cells from […] different healthy blood donors. […] We next used a Luminex assay to measure the capacity of peptide […] to inhibit endotoxin-free anti-ApoA-I IgG-mediated proinflammatory cytokine release in human monocyte-derived macrophages (Fig 5a and 5b). As expected from previously published work, anti-ApoA-I IgG elicited a significant increase in production of both in IL-6 and TNF-α when compared to control IgG (Ctl IgG; p<0.0001 for both cytokines). […] We were unable to measure the inhibitory activity of intact purified and delipidated ApoA-I in this assay because traces of endotoxin elicit significant levels of background cytokine secretion (NV and SP, unpublished observations).  Fig 5 Peptide […] inhibits anti-ApoA-I IgG-mediated release of proinflammatory cytokines from cultured human monocyte-derived macrophages. Release of proinflammatory cytokines TNF-α (a) IL-6 (b) from human monocyte-derived macrophages induced by endotoxin-free goat polyclonal anti-ApoA-I IgG was determined with or without preincubation (2 h at room temperature) of the anti-ApoA-I IgG with peptide […] (1 mg/mL) and the corresponding scrambled peptide (Scr Pept). […] Anti-ApoA-I IgG was incubated with the indicated […] concentrations (preincubation 2 h at room temperature) prior to addition to cultured human monocyte-derived macrophages. Levels of proinflammatory cytokines were determined after 24 h culture. Experiments were repeated using cells from three different healthy donors, with results expressed as median, interquartile range (IQR) and range.

[4] = test system: anti-ApoA-I antibodies from pooled patient plasma; assay: Competition ELISA: peptides block binding of antibodies from pooled patient plasma to immobilized ApoA-I; set-up: species or system human; details: pooled patient plasma preincubated 2 h at room temperature with peptide; wells coated with intact ApoA-I (Fig 1b)
Procedure: as §1, with “3). […] In contrast, when pre-incubated with goat polyclonal anti-ApoA-I IgG, none of the peptides, including Peptide F, decreased signal inhibition by 15% at the highest concentration (Fig 1c). […]” for “3).”

[5] = test system: goat polyclonal anti-ApoA-I IgG; assay: Competition ELISA: peptides block binding of goat polyclonal IgG to immobilized ApoA-I; details: goat polyclonal anti-ApoA-I IgG preincubated with peptide; wells coated with ApoA-I (Fig 1c)
Procedure: as §1, with “3). […] In contrast, when pre-incubated with goat polyclonal anti-ApoA-I IgG, none of the peptides, including Peptide F, decreased signal inhibition by 15% at the highest concentration (Fig 1c). […]” for “3).”

| Substance | plasma immunoreactivity (specific ELISA signal) to coated peptide [1] | also measured |
| --- | --- | --- |
| B: ApoA-I-derived peptide, residues 50–84 (WDSVTSTFSKLREQLGPVTQEFWDNLEKETEGLRQ; UniProt P02647 74-108, looked up, fragment) | intermediate signals | – |
| C2: ApoA-I-derived peptide, residues 122–142 (LRAELQEGARQKLHELQEKLS; UniProt P02647 146-166, looked up, fragment) [Peptide C2] | intermediate signals | – |
| E: ApoA-I-derived peptide, residues 190–213 (AEYHAKATEHLSTLSEKAKPALED; UniProt P02647 214-237, looked up, fragment) | low signals | – |
| KELYLLKFTVESKVGSTELPLNFSLA [F (scrambled), scrambled version of Peptide F, control peptide, reference compound] | – | inhibition of binding of anti-ApoA-I IgG to immobilized ApoA-I [2]: No inhibition was detectable; inhibitory potency on anti-ApoA-I IgG-induced TNF-α (RAW cells): no detectable inhibitory activity; inhibition of anti-ApoA-I IgG-induced TNF-α and IL-6 release [3]: did not inhibit |
| A: ApoA-I-derived peptide, residues 10–39 (RVKDLATVYVDVLKDSGRDYVSQFEGSALG; UniProt P02647 34-63, looked up, fragment) | low signals | – |
| C1: ApoA-I-derived peptide, residues 97–120 (VQPYLDDFQKKWQEEMELYRQKVE; UniProt P02647 121-144, looked up, fragment) [Peptide C1] | low signals | – |
| GLLPVLESFKVSFLSALEEYTKKLNT [Peptide F, ApoA-I-derived peptide, residues 220–242, C-terminal alpha-helix] | strongest signal | maximal inhibition plateau of total anti-ApoA-I signal [4]: approximately 50%; peptide concentration above which inhibition of ELISA signal is seen [4]: above 3 μM; decrease of ELISA signal at the highest peptide concentration [5]: < 15%; inhibition of anti-ApoA-I IgG-induced TNF-α and IL-6 release [3]: comparable to that of F3L1 |
| YSDELRQRLAARLEALKENGGA [Peptide D2, ApoA-I-derived peptide, residues 166–187] | low signals | – |
| LGEEMRDRARAHVDALRTHLAPYSDEL [Peptide D1, ApoA-I-derived peptide, residues 143–164] | low signals | – |
